# In patent publication EP0673239B1, “AQUEOUS ANTIBIOTIC COMPOSITION FOR VETERINARY USE” (priority 1992, dated 1994):
# Test: Study 1: cloxacillin in milk after intramammary infusion of Injector 1A
# Assay type: in vivo, cows
# Conditions: single dose, micronised form in an aqueous base
# Procedure: A number of studies have been conducted in cows to establish the following : - Study 1: Bioavailability of cloxacillin in bovine colostrum following intramammary infusion of Injector 1A. Study 2: Irritancy of aqueous cloxacillin in the bovine mammary gland.
# As a secondary objective plasma levels of Cloxacillin were also measured, in order to assess the extent of systemic absorption.
# Eight animals were infused with Injector 1A in all four quarters, and samples of milk were taken at the following intervals post infusion : 0.5, 1, 2, 3, 4, 6, 8, 12, 24, 32, 48, 72, 96, 120 and 144 hours.
# Quarter results were recorded for all animals (it was not possible to get samples from two of the quarters due to problems associated with hand milking of animals normally used to being machine milked). […] A peak mean value of 5233.4 mg/L was found at the first sampling interval (0.5 hr) with an approximately exponential decline being noted over the next 72 hours.
structure (smiles),measurement,setting,value
Cc1onc(-c2ccccc2Cl)c1C(=O)N[C@@H]1C(=O)N2[C@@H]1SC(C)(C)[C@@H]2C(=O)O [cloxacillin benzathine],Tmax,"bovine, milk, read-out: time to high initial peak of antibiotic",≤ 30 min
same,duration of therapeutic levels,,up to 72 hours
